Entries after “also recorded” stand apart in the source; their conditions may differ.

The source of these data is US7196105B2, “Treatment of human multiple myeloma by curcumin” (Research Development Foundation, priority 2002, dated 2007).

Holding throughout (format): cell-based, human
For one assay, the system named is IκBα. The experiment in a line: Western blot for NF-κB-regulated gene product IκBα in U266 cells. The settings on record: curcumin 50 μM, time course. As to the method:
(§1) Sixty micrograms of cytoplasmic extracts were resolved on 10% SDS-PAGE gel, electrotransferred on a nitrocellulose membrane, and probed for the following: IκBα (FIG. 4A); Bcl-2 (FIG. 4B); Bcl-xL (FIG. 4C) and cyclin D1 (FIG. 4D). The same blots were stripped and reprobed with anti-β-actin antibody to show equal protein loading (lower panel in each figure). FIG. 4E: […] U266, MM.1 or RPMI 8226 cells (1×10^7) were treated with curcumin ([…]) in 5 ml of medium for the indicated times. Supernatants were harvested and concentrated approximately 20×, and IL-6 was quantitated by an IL-6 ELISA kit. Values shown were normalized to 1 ml of un-concentrated supernatants. Thirty to fifty micrograms of cytoplasmic protein extracts prepared as described (Chaturvedi et al., 2000) were resolved on 10% SDS-PAGE gel. After electrophoresis, the proteins were electrotransferred to a nitrocellulose membrane, blocked with 5% nonfat milk, and probed with antibodies against either IkBa, phospho-IkBa, Bcl-2, Bcl-xL, or cyclin D1 (1:3000) for 1 h. Thereafter, the blot was washed, exposed to HRP-conjugated secondary antibodies for 1 h, and finally detected by chemiluminescence (ECL, Amersham Pharmacia Biotech., Arlington Heights, Ill.).
For orientation: Immunoblotting shows a protein as a band on a membrane.

A further assay relates to Bcl-xL. The assay is described as follows: Western blot for NF-κB-regulated gene product Bcl-xL in U266 cells. The settings on record: curcumin 50 μM, time course. As to the method:
as §1

A further assay deals with IL-6. The experiment in a line: IL-6 ELISA of culture supernatants. Conditions: U266 cells, curcumin (legend b20: 10 mM). As to the method: Sixty micrograms of cytoplasmic extracts were resolved on 10% SDS-PAGE gel, electrotransferred on a nitrocellulose membrane, and probed for the following: IκBα (FIG. 4A); Bcl-2 (FIG. 4B); Bcl-xL (FIG. 4C) and cyclin D1 (FIG. 4D). The same blots were stripped and reprobed with anti-β-actin antibody to show equal protein loading (lower panel in each figure). FIG. 4E: […] U266, MM.1 or RPMI 8226 cells (1×10^7) were treated with curcumin ([…]) in 5 ml of medium for the indicated times. Supernatants were harvested and concentrated approximately 20×, and IL-6 was quantitated by an IL-6 ELISA kit. Values shown were normalized to 1 ml of un-concentrated supernatants. […] One hundred microliter aliquots were removed, and IL-6 contents were determined by an ELISA kit (Biosource International).
In general terms: ELISA stands for enzyme-linked immunosorbent assay.

For assay [1], the system named is U266 cells. The assay is described as follows: Proliferation by thymidine incorporation. Conditions: U266, 24 h, different concentrations. As to the method:
FIG. 6A: U266 cells (5000 cells/0.1 ml) were incubated with different concentrations of curcumin for 24 hours, and cell proliferation assay was performed as described. Results are shown as mean (±s.d.) of percent [^3H}-thymidine incorporation of triplicate cultures compared to untreated control. FIG. 6B: U266 cells (5000 cells/0.1 ml) were incubated with different concentrations of curcumin for 24 hours, and cell viability was determined by MTT method. The results are shown as the mean (±s.d.) percent viability from triplicate cultures. The antiproliferative effects of curcumin were also monitored by the thymidine incorporation method. Five thousand cells in […] medium were cultured in triplicate in 96-well plates in the presence or absence of curcumin for 24 h. Six hours before the completion of experiment, the cells were pulsed with […] ^3H-thymidine, and the uptake of ^3H-thymidine was monitored using a Matrix-9600 b-counter (Packard Instruments, Downers Grove, Ill.).
Background: Uptake of a labelled nucleoside into DNA is a usual measure of proliferation.

For assay [2], the system named is U266 cells. The experiment in a line: Cell viability by MTT method. Conditions: U266, 24 h, different concentrations. As to the method: The results are shown as the mean (±s.d.) percent viability from triplicate cultures.
(§2) Briefly, cells (5000/well) were incubated in triplicate in a 96-well plate in the presence or absence of indicated test samples in a final volume of 0.1 ml for 24 h at 37° C. Thereafter, 0.025 ml of MTT solution (5 mg/ml in PBS) was added to each well. After a 2 h incubation at 37 ° C., 0.1 ml of extraction buffer (20% SDS, 50% dimethylformamide) was added. Incubation was continued for overnight at 37 ° C., and then the OD at 590 nm was measured using a 96-well multiscanner autoreader (Dynatech MR 5000), with extraction buffer as blank. Percent cell viability=(OD of the experiment samples/OD of the control)×100.

The subject of assay [3] is U266 cells. The experiment in a line: Flow cytometric cell cycle analysis (propidium iodide). The settings on record: U266, 10 μM curcumin, 24 h. As to the method:
U266 cells (2×10^6 cells/ml) were incubated in the absence or presence of curcumin (10 μM) for the indicated times. The cells were then washed, fixed, stained with propidium iodide, and analyzed for DNA content by flow cytometry. […] After incubation for overnight at −20° C., cells were washed with PBS prior to staining with propidium iodide (PI), and then suspended in staining buffer (PI, […]; Tween-20, 0.5%; RNase, 0.1% in PBS). The cells were analyzed using a FACS Vantage flow cytometer that uses CellQuest acquisition and analysis programs (Becton Dickinson, San Jose, Calif.).

For assay [4], the system named is CD138+ cells from multiple myeloma patients. The experiment in a line: Viability of bone marrow CD138+ cells from multiple myeloma patients (MTT or trypan blue). The settings on record: 24 h. As to the method: as §2

As to `COc1cc(/C=C/C(=O)CC(=O)/C=C/c2ccc(O)c(OC)c2)ccc1O` [curcumin, diferuloylmethane], the IκBα protein level result in the assay with IκBα is listed as “only a partial decline”. The Bcl-xL protein level result in the assay on Bcl-xL is reported as “only a partial decline”. Besides, the IL-6 production result in the assay on IL-6 is on record as “inhibited the production of IL-6”. Besides, the thymidine incorporation entry in the assay on U266 cells [1] is on record as “suppressed thymidine incorporation within 24 h in a dose-dependent manner”. In the assay on U266 cells [2], the “cell viability / mitochondrial activity (MTT)” value is “suppressed mitochondrial activity; also recorded: decreased cell survival in a dose-dependent manner”. Besides, the “percentage of cells in the S phase” value in the assay with U266 cells [3] (from 22% without treatment) was 9%. Moreover, the “percentage of cells in the G1 phase” value in the assay with U266 cells [3] (from 52% without treatment) is given as 70%. In addition, the cell survival entry in assay [4] (patient #20, indicated concentrations, MTT) is recorded as “much more effective in inhibiting the survival of multiple myeloma cells than dexamethasone”; in assay [4] (patients #7, #9 and #10, different concentrations) it was “decreased cell survival in a dose-dependent manner”.
